Assays:
[1] = Recovery of peripheral blood counts and marrow cellularity after stem cell rescue; format: in vivo, FVB mice
Method: (§1) Compound (drug). TNP-470 was provided by TAP Pharmaceuticals (Deerfield, Ill.). Prior to use, TNP-470 was reconstituted in sterile saline, aliquoted and stored at −80° C. TNP-470 was used at a dose of 20-100 mg/kg given SQ three times per week beginning at day 0 or at a dose of 10-20 mg/kg/week given by continuous intraperitoneal infusion using an Alzet infusion pump (Alza Co., Palo Alto, Calif.). The continuous TNP-470 infusion began on the day prior to transplant to allow for pump implantation (see below).
Alzet infusion pump placement. Using sterile technique following anesthesia, a 1 cm midline abdominal incision was made and 14 day Alzet micro-osmotic pumps (0.25 μl/hr, model 1002) containing either TNP-470 or saline were placed intraperitoneally. The peritoneum and skin were then secured separately using 4.0 vicryl suture. The animals were allowed to recover overnight and then subjected to TBI and stem cell infusion on the following day.
Analysis of engraftment. […] Following cervical dislocation, BM and splenocytes were collected from recipient mice. Analysis was performed after red cell lysis with NH4Cl. For flow cytometric analysis of lymphoid engraftment, Tg IgM expressed only in B cells derived from the donor was detected by antibodies recognizing human IgM (RAHM; Jackson ImmunoResearch, West Grove, Pa.) and mouse CD45R (B220, Pharmingen, Torreyana, Calif.) in a two-color protocol on a FACS Caliber cytometer (Becton-Dickinson, Franklin Lakes, N.J.). Splenocytes from untransplanted Tg− and Tg+ mice provided negative and positive controls, respectively. Lymphoid engraftment was defined as the percentage of lymphoid cells in spleen and BM that were B220/RAHM positive. In addition to flow cytometry, genomic DNA from tail snips, blood, BM, and splenocytes was analyzed by PCR for the presence of the transgene, using a procedure and primers previously reported (15). The transgene was detectable by PCR in all donor-derived cells in the recipient, while the tail snips of Tg− mice provided a negative control. Genomic DNA was also isolated from splenic and peripheral blood T cells. Splenic T cells were isolated using the Cellect T isolation column (Biotex, Edmonton, Canada) according to the manufacturer's protocol. Peripheral blood T cells were sorted on the FACS Vantage (Becton-Dickson) after staining with antibodies recognizing mouse CD3 (Pharmingen). Recovery of peripheral blood counts was also analyzed. Blood was collected from cardiac puncture and placed in EDTA tubes (Becton-Dickson). Analysis was then performed with a HemeVet (CDC Technologies) instrument using mouse-specific parameters. Hemoglobin was measured and white blood cells (WBC) and platelets were enumerated.

[2] = tested on: human hematopoietic progenitors; test: In vitro bone marrow culture, colony formation in methylcellulose; format: cell-based
Method: In vitro bone marrow culture. Light density cells separated by density gradient centrifugation (Lymphocyte Separation Medium, ICN Pharmaceutical, Costa Mesa, Calif.) from normal human BM donors were plated in methylcellulose medium with recombinant cytokines. This medium, MethoCult GF (Stem Cell Technologies, Vancouver, Canada), contains stem cell factor 50 ng/ml, GM-CSF 10 ng/ml, IL-3 10 ng/ml and erythropoietin 3 units/ml. 5×10^4 BM cells/dish were cultured with TNP-470 at concentrations ranging from 1 mcg/ml to […], with duplicate cultures at each dose. The plates were scored after 14 days of culture, enumerating colony-forming unit granulocyte/macrophage (CFU-GM), CFU-mix, CFU-erythrocyte and burst-forming unit erythrocyte (CFU-E and BFU-E).
Effect of TNP-470 on bone marrow colony-forming cells. Although hematologic toxicity has not been described in the TNP-470 phase I trials (24, 25), there is one report of in vitro evidence of BM toxicity (16). In order to confirm this finding, we investigated the effect of relatively high concentrations of TNP-470 (0-100 μg/ml) on growth of human hematopoietic progenitors in standard methylcellulose culture. […] Although this assay is not necessarily predictive of in vivo BM toxicity, the result emphasizes the need to develop a pre-clinical model of stem cell transplantation to assess the effect of AIs on engraftment.

[3] = tested on: neuroblastoma cell lines; settings: first administered ten days after inoculation with two different neuroblastoma cell lines; cited from earlier work
[4] = Survival and toxicity after TBI and stem cell rescue in the mouse stem cell transplant model; format: in vivo, FVB mice
Description: Donors, recipients and preparative regimen. Transgenic mice expressing a human IgM Tg in the FVB background were used as the donor source of bone marrow stem cells for transplantation. The FVB strain of inbred mice is frequently utilized in the generation of transgenic animals. Marrow was collected from Tg+ mice from femurs flushed with sterile PBS. Recipients were FVB mice (Jackson Laboratory, Bar Harbor, Me.) or Tg negative littermates of the Tg positive donors, treated in groups of 5-8 animals/intervention. Recipients received total body irradiation (TBI) in an M38-1 Irradiator (Isomedix) at a dose rate of 2.7 Gy/min in a mixed/split fashion with a 3 hour interfraction interval to allow a higher dose of radiation without significant gastrointestinal toxicity. After completion of TBI, mice received stem cells via tail vein injection. The mice were maintained in a temperature controlled humidified area in autoclaved microisolator cages and fed ad libitum and provided acidified water. Mice were assessed three times weekly after stem cell infusion. These studies were approved by the Animal Care and Use Committee of the Children's Hospital of Philadelphia.
as §1
Effect of TNP-470 on engraftment. Several dose levels of TNP-470 were explored to assess any effect on BM engraftment and engraftment kinetics. Immediately following lethal irradiation and tail vein injection of Tg+ BM cells, recipient mice were given either TNP-470 or saline starting on day 0. Dose schedules were also varied from a single dose at the time of stem cell infusion to an initial dose on day 0 followed by administration of TNP-470 or saline 3 times a week (Table 3). Mice were initially sacrificed on days 28-32 at all dose levels. Comparative kinetics were then further analyzed by sacrificing groups of mice at day 21, day 24, and day 28 at dose level 3.

[5] = cited from earlier work

CO[C@@H]1[C@H](OC(=O)NC(=O)CCl)CC[C@@]2(CO2)[C@H]1[C@]1(C)O[C@@H]1CC=C(C)C [TNP-470]
WBC ([1]; continuous infusion): 6300 µL⁻¹ | hemoglobin or platelet recovery versus control ([1]; continuous infusion 10 mg/kg/week): no significant differences | marrow cellularity versus controls ([1]; day 28, dose level 3, femurs): no difference | WBC ([1]; day 28 post BMT, continuous infusion IP via Alzet pump at 10 mg/kg/wk, mean ± SEM): 6.3 ± 0.4 10^3/μL | WBC ([1]; day 28 post BMT, intermittent dosing, dose level 3, SQ three times/wk, mean ± SEM): 3.6 ± 0.7 10^3/μL | hemoglobin or platelet count versus control ([1]; intermittent (bolus) dosing): No statistical differences | mean white blood cell count ([1]; intermittent TNP-470): 3600 µL⁻¹ | inhibition at 4 µg/mL ([2]; Homo sapiens, 336 h, TNP-470 4 μg/ml, myeloid and erythroid colonies, 14 days culture): > 80% | inhibition of colony-forming cells ([2]; higher doses than 4 μg/ml (range 0-100 μg/ml)): complete inhibition | effect on primary tumor and metastases [3]: decreased the primary tumor volume and the size and number of lymph node and liver metastases | Overall survival ([4]; all dose levels, after stem cell rescue): 66% | survival rate ([4]; dose level 1 (20 mg/kg on day 0 and then thrice weekly), at completion of the experiment): 57% | survived to experiment completion ([4]; dose level 2 (100 mg/kg on day 0 only), day 28-32): 71% | weight loss ([4]; dose level 4 (100 mg/kg 3×/week)): greater weight loss than the control animals | skin irritation ([4]; dose level 4 (100 mg/kg 3×/week), SQ): evidence of skin irritation at the injection sites | hematologic toxicity in Phase I trials ([5]; Phase I trials): no significant hematologic toxicity | maximal tolerated dose (MTD) ([5]; one-hour intravenous infusions, three times a week, intermittent schedule): 60 mg/m^2
